The values below come from patent publication USRE32393E, “Composition for enhancing the administration of pharmacologically active agents” (KabiVitrum AB, priority 1967, dated 1987).

In general, LD50 refers to the dose expected to kill half of the subjects tested.

Each structure is given as a SMILES string. Structures can show the parent of a compound that is named as a salt.

The nature of series [1]: intravenous toxicity (LD50, survival time) of mecamylamine preparations in mice. In kind it is in vivo, male albino mice of the NMRI strain. The conditions noted are these: mouse, in vivo, 1% preparations, fiducial limits at P = 0.05. The text has this: (§1) Mecamylamine (3-methylaminoisocamphane hydrochloride) is a ganglion-blocking secondary amine, and as a base, it is an oily liquid which is soluble in lipids. Its toxicity (LD50) after intravenous administration has been estimated in male albino mice of the NMRI strain in accordance with the method of the Nordic Pharmacopoeia. The following preparations were used:
(§2) Mecamylamine hydrochloride, 1% dissolved in saline
(§3) Mecamylamine base, dissolved in soybean oil and emulsified in the conventional way. Final concentration 1%.
(§4) Mecamylamine base, directly emulsified in 5.5% glucose solution with the aid of Pluronic F-68 (a registered trade mark for a nonionic emulsifier consisting of a block polymer of ethylene oxide and propylene oxide, from Wyandotte Chemical Corporation, described on page 392 of the Extra Pharmacopoeia, Martindale, 26th Edition) and an ultrasonic apparatus (20.000 Hz). Final concentration 1%.
(§5) The injections were given in the dorsal tail vein at a speed of 0.1 ml per 5 seconds.

For series [2], the system named is male albino mice of the NMRI strain. The description is as above. In kind it is in vivo. The note with it: ± S.E.
Source text: as §1, §2, §3, §4, §5

The nature of series [3]: pH value of phenyramidol preparations. It counts as physicochemical. The conditions noted are these: aqueous solution.
In series [4] the test system is hind leg of cats anaesthetized with chloralose. The conditions noted are these: intraarterial, about 1-2 mg/kg.
For series [5], the system named is chloralose-anaesthetized cat. As to the kind of experiment: effect on blood pressure in chloralose-anaesthetized cat. The note with it: intravenous. In kind it is in vivo. How it is done: The effects of the emulsion on the blood pressure when given intravenously in a dose of 5-10 mg/kg was registered on a chloralose-anaesthetized cat.
The test system of the next series is mouse. As to the kind of experiment: sleeping time in mouse (loss of righting reflex). It counts as in vivo. The note with it: single dose. The source says:
The sleeping time after a single dose injection of the emulsion was shorter than the sleeping time after injection of an aqueous solution of sodium hexobarbital:
In accordance with common practice, the sleeping time has been set as the duration of the loss of the righting reflex.

With `CNC1(C)C2CCC(C2)C1(C)C` (stereo not drawn) [Mecamylamine HCl, 3-methylaminoisocamphane hydrochloride], the 50% lethal dose (LD50) in series [1] was 16.3 mg/kg. The “Survival time (time from the injections to death)” value in series [2] is 55 ± 5.1 s.

For the compound `OC(CNc1ccccn1)c1ccccc1` (stereo not drawn) [phenyramidol hydrochloride], the “pH value compared with the emulsion” value in series [3] is listed as “lower pH value”.

With `CC1CC(OC(=O)C(O)c2ccccc2)CC(C)(C)C1` (stereo not drawn) [Cyclandelate, 3,5,5-trimethylcyclohexyl mandelate], in series [4], the onset of vasodilatation entry is listed as “within a few seconds”. Moreover, in series [4] (especially in noradrenaline induced vasoconstriction), the vasodilatation result is given as “marked vasodilatation”.

In the case of `CN1C(=O)NC(=O)C(C)(C2=CCCCC2)C1=O` (stereo not drawn) [sodium hexobarbital], the “duration of blood pressure depression, emulsion and sodium hexobarbital solution” value in series [5] was “about the same duration”. The “depression of blood pressure” value in series [5] (5-10 mg/kg) is reported as “about 6 mm Hg”. Moreover, the Sleeping time was determined as 172 s in the series on mouse (72 mg/kg) and 905 s in the series with mouse (86 mg/kg).
